The supplement of paper PMC10307832

Legend:
Test in all cases: relative viability (nuclei count vs DMSO), 5 days (fraction); higher = more cells survive
[1] = compound: COc1cc(N2CCC(N3CCN(C)CC3)CC2)ccc1Nc1ncc(Cl)c(Nc2ccccc2S(=O)(=O)C(C)C)n1 [NVP-TAE684] + CC(=O)Nc1cccc(-n2c(=O)n(C3CC3)c(=O)c3c(Nc4ccc(I)cc4F)n(C)c(=O)c(C)c32)c1 [Trametinib] (partner 0.02 µM)
Summary of the method: (§1)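 Medians of duplicate plates are given as relative viability. That measure is the nuclei count in treated wells divided by the count in vehicle wells. Counts were taken on 4× images of lung cancer cell lines in 1536-well plates, 5 days after pin-tool dosing the day after seeding with one drug alone or a fixed anchor-drug dose plus five library-drug doses (not always all listed) in √10 steps.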

[2] = compound: COc1cc(N2CCC(N3CCN(C)CC3)CC2)ccc1Nc1ncc(Cl)c(Nc2ccccc2S(=O)(=O)C(C)C)n1 [NVP-TAE684] + COc1cccc2cc(-c3nc([C@H]4CC[C@H](C(=O)O)CC4)n4ncnc(N)c34)[nH]c12 [OSI-027] (partner 0.5 µM)
Summary of the method: as §1

[3] = compound: COc1cc(N2CCC(N3CCN(C)CC3)CC2)ccc1Nc1ncc(Cl)c(Nc2ccccc2S(=O)(=O)C(C)C)n1 [NVP-TAE684] + CS(=O)(=O)N1CCN(Cc2cc3nc(-c4cccc5[nH]ncc45)nc(N4CCOCC4)c3s2)CC1 [Pictilisib] (partner 1 µM)
Summary of the method: as §1

[4] = compound: COc1cc(N2CCC(N3CCN(C)CC3)CC2)ccc1Nc1ncc(Cl)c(Nc2ccccc2S(=O)(=O)C(C)C)n1 [NVP-TAE684] + O=C(c1cc(Cc2n[nH]c(=O)c3ccccc23)ccc1F)N1CCN(C(=O)C2CC2)CC1 [Olaparib] (partner 8 µM)
Summary of the method: as §1

[5] = compound: COc1cc2/c(=N/c3ccc(Br)cc3F)nc[nH]c2cc1OCC1CCN(C)CC1 [Vandetanib] + CS(=O)(=O)N1CCN(Cc2cc3nc(-c4cccc5[nH]ncc45)nc(N4CCOCC4)c3s2)CC1 [Pictilisib] (partner 1 µM)
Summary of the method: as §1

Cell Line	relative viability ([1]; first compound 0.2 µM)	relative viability ([1]; first compound 0.6325 µM)	relative viability ([1]; first compound 2 µM)	relative viability ([2]; first compound 0.2 µM)	relative viability ([2]; first compound 0.6325 µM)	relative viability ([3]; first compound 0.2 µM)	relative viability ([3]; first compound 0.6325 µM)	relative viability ([3]; first compound 2 µM)	relative viability ([4]; first compound 0.2 µM)	relative viability ([4]; first compound 0.6325 µM)	relative viability ([5]; first compound 0.02 µM)	relative viability ([5]; first compound 0.06325 µM)	relative viability ([5]; first compound 0.2 µM)	relative viability ([5]; first compound 0.6325 µM)	relative viability ([5]; first compound 2 µM)	relative viability ([4]; first compound 2 µM)	relative viability ([2]; first compound 2 µM)
PC-3 [JPC-3]	0.721	0.572	0.58	0.686	0.759	0.697	0.684	0.65	1.32	1.02	0.725	0.709	0.622	0.423	0.359	–	–
IA-LM	–	–	–	–	–	0.253	0.176	0.202	0.745	0.799	0.349	–	0.345	0.405	0.331	0.638	–
NCI-H520	0.73	0.695	0.204	0.281	0.287	0.337	0.3	0.228	0.327	0.332	0.289	0.258	0.245	0.345	0.263	0.198	0.199
A549	–	–	–	–	–	0.534	0.407	0.108	0.308	0.387	0.499	0.419	0.614	0.473	0.412	0.3	–
BEN	0.983	0.912	–	0.27	0.311	0.467	0.472	0.527	1.04	0.971	0.576	0.49	0.585	0.646	0.538	0.894	0.265
COR-L 105	0.439	0.42	0.313	0.636	0.441	0.307	0.281	0.264	0.695	0.595	0.408	0.405	0.412	0.344	0.335	–	0.268
NCI-H1734	0.696	0.673	0.517	0.679	0.518	0.422	0.364	0.336	0.668	0.665	0.43	0.435	0.479	0.449	0.43	0.461	0.387
LOU-NH91	0.783	0.714	0.626	0.746	0.674	0.635	0.462	0.481	0.888	–	0.528	0.565	0.508	0.524	0.515	0.657	0.571
NCI-H2405	0.578	0.556	0.336	0.564	0.613	0.522	0.348	0.284	0.923	0.825	0.535	0.264	0.44	0.45	0.222	0.481	0.261
HCC-15	0.355	0.418	0.186	0.631	0.525	0.718	0.738	0.737	0.745	0.748	0.795	0.678	0.696	0.767	0.796	0.577	0.381
HCC-44	0.982	1.08	0.926	0.525	0.428	0.658	0.602	0.412	0.997	1.07	0.58	0.543	0.556	0.613	0.634	0.905	0.218
NCI-H1792	0.413	0.388	0.271	0.779	0.731	0.227	0.256	0.232	0.52	0.37	0.273	0.288	0.303	0.318	0.235	0.248	0.818
NCI-H2347	0.275	0.264	0.355	0.403	0.368	0.572	0.482	0.597	0.573	0.57	0.849	0.601	0.571	0.462	0.788	0.49	0.301
SW 900	0.743	0.51	0.594	0.536	0.425	–	–	–	0.885	0.953	–	–	–	–	–	0.68	0.703
RERF-LC-KJ	0.861	0.772	0.664	0.514	0.448	0.613	0.484	0.494	1.1	0.758	0.583	0.543	0.577	0.448	0.394	0.547	0.306
NCI-H522	0.652	0.776	0.738	–	0.702	–	–	–	0.642	0.664	–	–	–	–	–	0.662	0.554
NCI-H1666	0.818	0.836	0.714	0.901	0.767	0.31	0.348	0.274	0.734	0.772	0.343	0.446	0.498	0.451	0.322	0.736	0.641
LC-2-ad	0.881	0.926	0.669	0.804	0.673	0.333	0.578	0.344	0.75	0.675	0.503	0.4	0.167	0.324	0.19	0.464	0.317
NCI-H2023	0.462	0.498	0.155	0.412	0.258	0.244	0.137	0.109	0.587	0.518	0.218	0.201	0.261	0.202	0.279	0.138	0.101
